Source: PubChem BioAssay (NCI)
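In this assay, cells in 96-well plates receive the compound at five concentrations for 48 hours. Endpoints are linearly interpolated between the surrounding concentrations. The concentration for 50% growth inhibition is given as GI50. TGI: total growth inhibition.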

Columns and labels:
Assay in all cases: NCI tumour cell line growth inhibition, 48 h
DMS 273 small cell lung = test system: DMS 273 small cell lung
KM20L2 colon = test system: KM20L2 colon
HOP-18 NSCLC = test system: HOP-18 NSCLC
DMS 114 small cell lung = test system: DMS 114 small cell lung
LXFL 529 NSCLC = test system: LXFL 529 NSCLC
DLD-1 colon = test system: DLD-1 colon
P388 leukemia = test system: P388 leukemia
SN12K1 renal = test system: SN12K1 renal
P388/ADR leukemia = test system: P388/ADR leukemia
RXF-631 renal = test system: RXF-631 renal

Structure (SMILES)	TGI (DMS 273 small cell lung) [µM]	TGI (KM20L2 colon) [µM]	GI50 (HOP-18 NSCLC) [µM]	TGI (HOP-18 NSCLC) [µM]	TGI (DMS 114 small cell lung) [µM]	TGI (LXFL 529 NSCLC) [µM]	TGI (DLD-1 colon) [µM]	TGI (P388 leukemia) [µM]	TGI (SN12K1 renal) [µM]	TGI (P388/ADR leukemia) [µM]	TGI (RXF-631 renal) [µM]
COc1cc2c(c(OC)c1OC)-c1ccc(SC)c(=O)cc1[C@@H](NCc1ccc([N+](=O)[O-])cc1)CC2	1.06	0.00435	> 100	> 100	0.00735	> 100	> 100	–	–	–	–
CCOC(=O)C1=C(O)c2ccc(C)cc2C(=O)C1=O	> 100	> 100	–	> 100	> 100	–	> 100	–	–	–	–
CSc1cnc2ccccc2c1Sc1c[nH]c2ccccc2c1=O	> 45.5	15.9	–	67.8	32.9	46.3	> 80.7	–	–	–	–
CCN(CC)CC1CCCCN1CC(=O)N1CC(C)C(=O)Nc2ccccc21 (stereo unspecified)	> 100	> 100	–	> 100	> 100	> 100	> 100	–	–	–	–
[N-]=[N+]=NCC(O)Cn1cnc2c(NC(=O)c3ccccc3)ncnc21 (stereo unspecified)	> 100	> 100	–	> 100	> 100	> 100	> 100	–	–	–	–
N/C(=N\N=C\c1ncccc1O)NO	> 59.4	> 100	–	> 100	> 100	–	> 100	12.8	> 69	11.5	–
C=C1C(C)C2C(Cc3ccccc3)NC(=O)C23OC(=O)/C=C\CC(=O)CCC(C)C/C=C/C3C1O (stereo unspecified)	14.1	15.8	–	1.94	6.61	–	3.36	0.385	3.43	2.1	–
Cc1c2ccncc2c(C)c2c1[nH]c1ccc(OCCN(C)C)cc12	0.321	1.18	–	2.76	–	–	0.718	0.0675	0.381	0.128	–
O=C(Nc1nn[nH]n1)c1nc(-c2ccccc2)cc(=O)[nH]1	–	> 100	–	–	> 100	> 100	> 100	–	–	–	–
O=c1c2ccccc2nc2ccc3c(Cl)[nH][nH]c3c12	> 100	> 100	–	> 100	> 100	> 100	> 100	–	–	–	> 100
COc1ccc(Oc2ccccc2N)cc1	> 100	> 100	–	> 100	> 100	> 100	> 100	–	–	–	> 100
